Data from US8906944B2, “Compounds as tyrosine kinase modulators” (Allergan, Inc., priority 2009, dated 2014).

What was measured:
PDGFβ [1] = biological target: T1, PDGFβ (Homo sapiens, UniProt P09619); test: PDGF stimulated Ca2+ signal in vitro (FLIPR); assay type: cell-based; parameters: host or cells: NHDF-Ad (normal human dermal fibroblasts); settings: NHDF-Ad, PDGF stimulation 10 ng/mL; Table IV, amide or urea linker; read-out: PDGFβ Cellular IC50
PDGFβ [2] = biological target: T1, PDGFβ; test: PDGFβ enzyme assay; assay type: biochemical; settings: Table IV, amide or urea linker
VEGFR1 = VEGFR1 (Homo sapiens, UniProt P17948); test: VEGFR1 enzyme assay; assay type: biochemical; settings: Table IV, amide or urea linker
[3] = biological target: T2, human VEGF receptor (VEGFR-2) (Homo sapiens, UniProt P35968); test: VEGFR2 kinase assay; assay type: biochemical; settings: His-VEGFR-2 cytoplasmic domain, 3.6 μM ATP; Table IV, amide or urea linker; read-out: VEGFR2 Enzyme IC50
T2 construct: The cytoplasmic domain of the human VEGF receptor (VEGFR-2) was expressed; His; made in house; host or cells: insect cells (baculovirus)
Outline: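 His-tagged VEGFR-2 cytoplasmic domain from baculovirus-infected insect cells phosphorylating plate-bound poly-Glu-Tyr (4:1). IC50 from blank-subtracted optical density versus compound concentration.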

VEGFR2 = VEGFR2 (Homo sapiens, UniProt P35968); test: VEGF stimulated Ca++ signal in vitro (FLIPR)
VEGFR2, sequence (P35968 20-1356): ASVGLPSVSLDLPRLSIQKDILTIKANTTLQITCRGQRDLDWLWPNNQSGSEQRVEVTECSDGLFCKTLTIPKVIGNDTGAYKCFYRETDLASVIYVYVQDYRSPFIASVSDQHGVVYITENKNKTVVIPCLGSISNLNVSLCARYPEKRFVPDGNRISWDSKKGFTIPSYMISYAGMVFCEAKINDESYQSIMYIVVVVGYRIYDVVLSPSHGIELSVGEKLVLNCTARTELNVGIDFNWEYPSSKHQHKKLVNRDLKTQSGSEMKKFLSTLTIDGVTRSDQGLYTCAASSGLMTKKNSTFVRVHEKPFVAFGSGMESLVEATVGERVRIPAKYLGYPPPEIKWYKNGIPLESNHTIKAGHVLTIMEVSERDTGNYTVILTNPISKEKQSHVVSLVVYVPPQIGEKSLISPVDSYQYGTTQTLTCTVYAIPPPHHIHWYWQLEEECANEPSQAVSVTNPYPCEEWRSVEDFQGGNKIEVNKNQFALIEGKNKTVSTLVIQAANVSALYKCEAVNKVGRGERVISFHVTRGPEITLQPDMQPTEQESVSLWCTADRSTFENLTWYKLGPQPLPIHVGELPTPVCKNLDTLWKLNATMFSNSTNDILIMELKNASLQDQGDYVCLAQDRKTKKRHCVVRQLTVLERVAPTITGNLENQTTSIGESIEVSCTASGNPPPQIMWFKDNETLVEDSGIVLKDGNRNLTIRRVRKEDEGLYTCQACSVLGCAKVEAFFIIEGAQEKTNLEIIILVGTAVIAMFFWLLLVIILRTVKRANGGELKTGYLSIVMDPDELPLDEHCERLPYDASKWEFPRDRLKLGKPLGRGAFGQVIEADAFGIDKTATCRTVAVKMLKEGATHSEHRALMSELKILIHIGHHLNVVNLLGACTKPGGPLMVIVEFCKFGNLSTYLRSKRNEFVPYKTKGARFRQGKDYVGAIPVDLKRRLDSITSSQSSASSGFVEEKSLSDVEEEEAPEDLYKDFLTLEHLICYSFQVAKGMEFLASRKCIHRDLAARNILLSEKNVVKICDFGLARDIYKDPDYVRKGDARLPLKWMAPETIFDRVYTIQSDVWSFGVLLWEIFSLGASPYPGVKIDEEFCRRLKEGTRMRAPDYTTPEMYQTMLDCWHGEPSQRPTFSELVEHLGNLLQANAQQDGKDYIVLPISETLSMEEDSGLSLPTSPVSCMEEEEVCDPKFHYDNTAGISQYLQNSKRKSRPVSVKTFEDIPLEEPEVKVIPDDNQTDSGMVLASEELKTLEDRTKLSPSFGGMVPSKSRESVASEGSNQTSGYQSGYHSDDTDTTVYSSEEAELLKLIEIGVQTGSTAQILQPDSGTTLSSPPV
Description: VEGF Stimulated Ca^++Signal in Vitro
Automated FLIPR (Fluorometric Imaging Plate Reader) technology was used to screen for inhibitors of VEGF induced increases in intracellular calcium levels in fluorescent dye loaded endothelial cells. HUVEC (human umbilical vein endothelial cells) (Clonetics) were seeded in 96-well fibronectin coated black-walled plates overnight at 37 degree. C./5% CO2. […] C. Cells were washed 4 times (Original Cell Wash, Labsystems) to remove extracellular dye. […] Data were generated by determining max-min fluorescence levels for unstimulated, stimulated, and drug treated samples. IC50 values for test compounds were calculated from % inhibition of VEGF stimulated responses in the absence of inhibitor.

T2 sequence (P35968 786-1356 limits assumed): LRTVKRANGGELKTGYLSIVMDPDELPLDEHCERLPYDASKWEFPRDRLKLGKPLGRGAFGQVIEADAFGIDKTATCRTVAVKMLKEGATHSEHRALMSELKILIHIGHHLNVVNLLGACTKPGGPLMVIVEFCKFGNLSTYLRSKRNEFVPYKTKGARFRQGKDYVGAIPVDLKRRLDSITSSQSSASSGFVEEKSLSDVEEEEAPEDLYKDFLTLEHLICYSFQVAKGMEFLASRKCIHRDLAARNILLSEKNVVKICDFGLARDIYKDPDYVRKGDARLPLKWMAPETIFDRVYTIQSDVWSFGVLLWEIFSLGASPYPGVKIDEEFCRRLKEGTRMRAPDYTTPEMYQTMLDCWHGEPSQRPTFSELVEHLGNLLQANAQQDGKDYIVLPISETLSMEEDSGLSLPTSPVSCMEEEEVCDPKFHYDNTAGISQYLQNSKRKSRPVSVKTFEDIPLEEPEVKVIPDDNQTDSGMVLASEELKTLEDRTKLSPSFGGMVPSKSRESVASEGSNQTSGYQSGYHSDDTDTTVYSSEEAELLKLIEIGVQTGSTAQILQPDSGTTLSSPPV
T1 sequence (P09619 33-1106): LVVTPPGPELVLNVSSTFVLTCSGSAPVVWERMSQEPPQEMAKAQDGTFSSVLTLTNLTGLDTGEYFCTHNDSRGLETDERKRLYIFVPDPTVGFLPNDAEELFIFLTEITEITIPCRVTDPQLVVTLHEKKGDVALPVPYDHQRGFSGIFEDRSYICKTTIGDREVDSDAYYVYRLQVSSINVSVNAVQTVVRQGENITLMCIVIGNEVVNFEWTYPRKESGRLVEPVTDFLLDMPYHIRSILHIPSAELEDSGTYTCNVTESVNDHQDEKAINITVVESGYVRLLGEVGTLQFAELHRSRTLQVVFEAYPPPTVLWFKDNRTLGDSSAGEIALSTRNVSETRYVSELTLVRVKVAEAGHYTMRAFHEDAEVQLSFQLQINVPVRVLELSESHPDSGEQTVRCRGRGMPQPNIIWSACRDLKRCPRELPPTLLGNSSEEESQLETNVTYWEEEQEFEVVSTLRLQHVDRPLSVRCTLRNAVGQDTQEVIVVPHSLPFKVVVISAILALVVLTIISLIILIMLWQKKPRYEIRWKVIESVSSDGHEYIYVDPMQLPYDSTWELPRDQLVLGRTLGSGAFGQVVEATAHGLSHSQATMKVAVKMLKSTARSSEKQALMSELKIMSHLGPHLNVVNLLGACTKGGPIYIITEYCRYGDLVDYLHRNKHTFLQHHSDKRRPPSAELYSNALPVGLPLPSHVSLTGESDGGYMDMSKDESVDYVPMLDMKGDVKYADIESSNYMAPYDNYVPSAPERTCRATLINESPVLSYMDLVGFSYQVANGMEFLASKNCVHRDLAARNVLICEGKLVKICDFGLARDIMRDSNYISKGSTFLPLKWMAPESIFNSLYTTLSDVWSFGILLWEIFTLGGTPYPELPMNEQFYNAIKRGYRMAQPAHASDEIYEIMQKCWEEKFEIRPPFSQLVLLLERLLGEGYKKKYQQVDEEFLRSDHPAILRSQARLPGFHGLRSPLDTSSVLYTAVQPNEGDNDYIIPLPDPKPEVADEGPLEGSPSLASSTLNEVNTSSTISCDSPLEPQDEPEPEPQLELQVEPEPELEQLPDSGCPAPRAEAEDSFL
VEGFR1, sequence (P17948 27-1338, species assumed): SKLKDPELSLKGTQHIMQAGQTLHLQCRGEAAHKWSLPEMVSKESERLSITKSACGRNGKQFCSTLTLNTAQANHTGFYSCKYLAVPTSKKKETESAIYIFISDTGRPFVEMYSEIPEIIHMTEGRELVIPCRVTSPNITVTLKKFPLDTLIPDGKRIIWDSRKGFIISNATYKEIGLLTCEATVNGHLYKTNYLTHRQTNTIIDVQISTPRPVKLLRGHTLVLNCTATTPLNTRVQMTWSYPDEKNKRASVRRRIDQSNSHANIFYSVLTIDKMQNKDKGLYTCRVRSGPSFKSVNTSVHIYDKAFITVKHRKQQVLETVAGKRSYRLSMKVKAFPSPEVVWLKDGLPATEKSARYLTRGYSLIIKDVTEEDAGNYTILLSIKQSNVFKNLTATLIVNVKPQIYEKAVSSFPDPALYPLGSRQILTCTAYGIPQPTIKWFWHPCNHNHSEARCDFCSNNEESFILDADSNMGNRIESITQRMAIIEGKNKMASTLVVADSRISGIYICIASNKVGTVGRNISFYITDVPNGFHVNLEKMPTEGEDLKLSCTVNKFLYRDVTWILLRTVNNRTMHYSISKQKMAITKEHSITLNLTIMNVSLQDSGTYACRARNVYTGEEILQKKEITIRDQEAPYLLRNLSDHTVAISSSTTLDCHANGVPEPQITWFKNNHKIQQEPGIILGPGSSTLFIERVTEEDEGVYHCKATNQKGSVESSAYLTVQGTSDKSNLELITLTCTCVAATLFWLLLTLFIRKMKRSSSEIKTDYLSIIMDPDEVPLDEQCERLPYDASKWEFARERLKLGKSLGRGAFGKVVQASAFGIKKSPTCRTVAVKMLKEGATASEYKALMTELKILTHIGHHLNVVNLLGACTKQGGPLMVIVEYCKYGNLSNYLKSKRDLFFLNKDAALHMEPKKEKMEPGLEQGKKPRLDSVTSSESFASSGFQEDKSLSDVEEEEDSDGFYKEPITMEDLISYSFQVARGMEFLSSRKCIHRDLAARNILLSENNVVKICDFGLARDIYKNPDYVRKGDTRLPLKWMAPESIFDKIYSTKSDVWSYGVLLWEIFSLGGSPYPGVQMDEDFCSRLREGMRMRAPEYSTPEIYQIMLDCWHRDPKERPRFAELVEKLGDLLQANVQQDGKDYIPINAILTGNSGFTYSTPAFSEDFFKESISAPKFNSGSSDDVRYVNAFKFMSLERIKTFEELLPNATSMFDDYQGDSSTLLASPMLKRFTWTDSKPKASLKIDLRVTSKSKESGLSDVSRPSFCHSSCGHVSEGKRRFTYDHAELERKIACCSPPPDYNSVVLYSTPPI

SMILES	IC50 (PDGFβ [1]) [nM]	IC50 (PDGFβ [2]) [nM]	IC50 (VEGFR1) [nM]	IC50 [3] [nM]	IC50 (VEGFR2) [nM]
COC(=O)CCCNC(=O)c1c[nH]c(-c2cc(Oc3ccc(NC(=O)Nc4cc(C)ccc4F)cc3)ccn2)c1 [Example 176, methyl 4-{[(5-{4-[4-({[(2-fluoro-5-methylphenyl)amino]carbonyl}amino)phenoxy]pyridin-2-yl}-1H-pyrrol-3-yl)carbonyl]amino}butanoate]	78	38			
Cc1ccc(F)c(NC(=O)Nc2ccc(Oc3ccnc(-c4cc(C(=O)NCCNC(=O)OC(C)(C)C)c[nH]4)c3)cc2F)c1 [Example 216, tert-butyl (2-{[(5-{4-[3-fluoro-4-({[(2-fluoro-5-methylphenyl)amino]carbonyl}amino)phenoxy]pyridin-2-yl}-1H-pyrrol-3-yl)carbonyl]amino}ethyl)carbamate]	214	59	16	17	
COC(=O)CC[C@H](NC(=O)c1c[nH]c(-c2cc(Oc3ccc(NC(=O)Nc4cccc(C)c4)c(F)c3)ccn2)c1)C(=O)OC [Example 230, dimethyl 2-{[(5-{4-[3-fluoro-4-({[(3-methylphenyl)amino]carbonyl}amino)phenoxy]pyridin-2-yl}-1H-pyrrol-3-yl)carbonyl]amino}pentanedioate]	31	12	9	6	2
CCOC(=O)CCNC(=O)c1c[nH]c(-c2cc(Oc3ccc(NC(=O)Nc4cc(C)ccc4F)c(F)c3)ccn2)c1 [Example 231, ethyl 3-{[(5-{4-[3-fluoro-4-({[(2-fluoro-5-methylphenyl)amino]carbonyl}amino)phenoxy]pyridin-2-yl}-1H-pyrrol-3-yl)carbonyl]amino}propanoate]	32	43			
CCNC(=O)[C@H](CCC(=O)OC)NC(=O)c1c[nH]c(-c2cc(Oc3cc(C(=O)Nc4cc(C)ccc4F)ccc3F)ccn2)c1 [Example 261, methyl 5-(ethylamino)-4-[({5-[4-(2-fluoro-5-{[(2-fluoro-5-methylphenyl)amino]carbonyl}phenoxy)pyridin-2-yl]-1H-pyrrol-3-yl}carbonyl)amino]-5-oxopentanoate]	108	100		12	
